# Results as given in patent publication US20090136616A1, “METHODS OF FEEDING RUMINANTS ON WINTER FORAGE SUPPLEMENTING WITH ZEOLITE” (priority 2007, published 2009).
# Read-outs that look alike come from different tables or passages of the source.
# Tests used:
# [1] = system: feedlot cattle; assay: Summary of seven feedlot experiments with Biolite in med and n-med finishing diets (rumen pH, liver abscesses, performance); type: in vivo; conditions: sample collected by Geishauser Probe prior to the morning feeding; B at 1.2% DMB
# Description: These diets have been composed of corn silage for roughage, flaked corn, and a substantial amount of wet corn milling byproducts.
# The feed additives used included Monensin sodium (R) and Tylosin phosphate (T).
# Data collected included daily gain, consumption, feed efficiency, rumen pH and observations on bloat and metabolic problems. Carcass data including liver abscess occurrence were collected.
# Rumen samples were collected from cattle prior to the morning feeding using a Geishauser Probe.
# [2] = system: Char-Hereford cross heifer calves; type: in vivo
# Description: The experimental animals were Char-Hereford cross unweaned heifer calves originating from Western Ontario and Eastern Manitoba Canada. On arrival they were vaccinated for IBR, PI3 and BVD. They were treated for internal and external parasites with Ivomec. They were implanted with Synovex C.
# Approximately 350 head of calves were purchased weighing approximately 500 lbs. From this group 160 head and were selected for the experiment and randomly allotted into four experimental groups. Each treatment contains 5 reps of 8 head each. They were grown on a medium energy level diet limit fed calculated to obtain a daily gain of approximately 2.6 lbs. Length of feeding period will be approximately 100 days. After arrival and prior to the trial allotment they were each-backgrounded for approximately 3-4 weeks. They averaged approximately 550 lbs at the beginning of the trial.
# Data collected included: • 1. Gain, consumption and conversions at 28 day intervals and overall. • 2. Observations on bloat and metabolic problems. • 3. Cost of gain by treatment including feed and feed additive cost, with no yardage or “mark up”.
# Originally the trial was scheduled for 100 days, but because of unusually good performance, it was decided to terminate at 91 days.
# [3] = system: Angus cross steer and heifer calves; conditions: bovine, in vivo
# Description: The experimental animals were Angus cross steer and heifer calves from Manitoba, Canada. They were trucked to the experimental feedlot located near Kitchener, Ontario, Canada. On arrival of the animal received IBR, PIP and BVD vaccine plus Covexina. They were also treated for internal and external parasites with Ivomec pour on. Prior to the beginning of this trial the calves were preconditioned for approximately 45 days and adapted to a high concentrate diet.
# Following the preconditioning period, unhealthy calves were removed and the remaining calves were divided into steer and heifer groups. These groups were then divided at random into 20 pens of steers and 20 pens of heifers. Each of the pens contained 8 head of calves. Five pens of steers and 5 pens of heifers were then allotted to each of 4 experimental treatments.
# Initial, 28 day interim weights and final weights were based on gross weights less a 4% pencil shrink. Experimental data collected included average daily gain, feed consumption and feed conversions. In addition, death loss and bloat problems were observed. At the termination of the trial, Rumen pH was measured on 4 animals from each treatment using a Geishauser Probe. The pH measurements were taken at 2, 4 and 6 hours after feeding.
# A calcium clinoptilolite zeolite (Biolite®) was added in place of an equivalent amount of corn. […]
# [4] = summarized: NC vs RT and BL vs no BL treatments pooled
substance,measurement,setting,value
Monensin sodium [R],rumen pH,[1],"R 6.43b means with different super script letter differ, P < .OS O 6.46b"
Nova-Cell + Biolite [NC + BL],Bloat Treated,"[2]; bovine, in vivo",0
Nova-Cell [NC],Bloat Died,[2]; 91 days,0
same,Bloat Treated,[2]; 91 days,0
same,Consumption,[2]; 91 days,17.0αb
same,Conversions,[2]; 91 days,5.97b
same,ADG,"[2]; 91 days, limit fed grow ration, BL at 1.2% DMB",2.85b
same,ADG,[2]; [4],3.03α
same,Consumption,[2]; [4],17.11α
same,Conversions,[2]; [4],5.70
calcium clinoptilolite zeolite [Biolite ®],Metabolics Treated,[3],4
